From PubChem BioAssay (NCI)
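Exposure lasted 48 hours, with cells grown in 96-well plates and compounds tested at five concentrations. At the GI50, growth is halved. Definition used: TGI = concentration required for complete inhibition of growth.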

Experiments:
Experiment in all cases: NCI tumour cell line growth inhibition, 48 h
SF-268 CNS = system: SF-268 CNS
SN12C renal = system: SN12C renal
KM12 colon = system: KM12 colon
A498 renal = system: A498 renal
UACC-62 melanoma = system: UACC-62 melanoma
TK-10 renal = system: TK-10 renal
MCF7 breast = system: MCF7 breast
786-0 renal = system: 786-0 renal
SW-620 colon = system: SW-620 colon
NCI-H460 lung = system: NCI-H460 lung
HOP-92 NSCLC = system: HOP-92 NSCLC
HS 578T breast = system: HS 578T breast
HL-60(TB) leukemia = system: HL-60(TB) leukemia
SK-MEL-2 melanoma = system: SK-MEL-2 melanoma
SNB-19 CNS = system: SNB-19 CNS
UO-31 renal = system: UO-31 renal
HCT-15 colon = system: HCT-15 colon
OVCAR-8 ovarian = system: OVCAR-8 ovarian
CCRF-CEM leukemia = system: CCRF-CEM leukemia
SK-MEL-28 melanoma = system: SK-MEL-28 melanoma
HCC-2998 colon = system: HCC-2998 colon
DU-145 prostate = system: DU-145 prostate
OVCAR-5 ovarian = system: OVCAR-5 ovarian
MDA-MB-231 breast = system: MDA-MB-231 breast
HOP-62 NSCLC = system: HOP-62 NSCLC
COLO 205 colon = system: COLO 205 colon
SNB-75 CNS = system: SNB-75 CNS
NCI-H226 lung = system: NCI-H226 lung
IGROV1 ovarian = system: IGROV1 ovarian
ACHN renal = system: ACHN renal
K-562 leukemia = system: K-562 leukemia
NCI-H522 lung = system: NCI-H522 lung
NCI/ADR-RES ovarian = system: NCI/ADR-RES ovarian
RXF 393 renal = system: RXF 393 renal
HCT-116 colon = system: HCT-116 colon
SF-539 CNS = system: SF-539 CNS
LOX IMVI melanoma = system: LOX IMVI melanoma
SK-MEL-5 melanoma = system: SK-MEL-5 melanoma
PC-3 prostate = system: PC-3 prostate
OVCAR-4 ovarian = system: OVCAR-4 ovarian
BT-549 breast = system: BT-549 breast
UACC-257 melanoma = system: UACC-257 melanoma
MOLT-4 leukemia = system: MOLT-4 leukemia
NCI-H23 lung = system: NCI-H23 lung
MALME-3M melanoma = system: MALME-3M melanoma
EKVX NSCLC = system: EKVX NSCLC
SK-OV-3 ovarian = system: SK-OV-3 ovarian
M14 melanoma = system: M14 melanoma
RPMI-8226 leukemia = system: RPMI-8226 leukemia
A549 NSCLC = system: A549 NSCLC
HT29 colon = system: HT29 colon
U251 CNS = system: U251 CNS
T-47D breast = system: T-47D breast

**Q.** For COc1ccc2c(c1)C(=O)c1c-2c(N(C)C)nc2ccccc12, which GI50 (SF-268 CNS) is on record?
**A.** 77.8 µM

**Q.** What about the TGI (SF-268 CNS) of the same molecule?
**A.** > 100 µM

**Q.** What about the GI50 (SN12C renal) of the same molecule?
**A.** 95.3 µM

**Q.** And the TGI (SN12C renal)?
**A.** > 100 µM

**Q.** What about the GI50 (KM12 colon) of the same molecule?
**A.** > 100 µM

**Q.** What about the TGI (KM12 colon) of the same molecule?
**A.** > 100 µM

**Q.** And the GI50 (A498 renal)?
**A.** > 100 µM

**Q.** And the TGI (A498 renal)?
**A.** > 100 µM

**Q.** What about the GI50 (UACC-62 melanoma) of the same molecule?
**A.** > 100 µM

**Q.** What about the TGI (UACC-62 melanoma) of the same molecule?
**A.** > 100 µM

**Q.** And the GI50 (TK-10 renal)?
**A.** 88.9 µM

**Q.** What about the TGI (TK-10 renal) of the same molecule?
**A.** > 100 µM

**Q.** What about the GI50 (MCF7 breast) of the same molecule?
**A.** > 100 µM

**Q.** What about the TGI (MCF7 breast) of the same molecule?
**A.** > 100 µM

**Q.** What about the GI50 (786-0 renal) of the same molecule?
**A.** > 100 µM

**Q.** And the TGI (786-0 renal)?
**A.** > 100 µM

**Q.** And the GI50 (SW-620 colon)?
**A.** > 100 µM

**Q.** And the TGI (SW-620 colon)?
**A.** > 100 µM

**Q.** And the GI50 (NCI-H460 lung)?
**A.** > 100 µM

**Q.** What about the TGI (NCI-H460 lung) of the same molecule?
**A.** > 100 µM

**Q.** And the GI50 (HOP-92 NSCLC)?
**A.** 72.6 µM

**Q.** What about the TGI (HOP-92 NSCLC) of the same molecule?
**A.** > 100 µM

**Q.** What about the GI50 (HS 578T breast) of the same molecule?
**A.** > 100 µM

**Q.** What about the TGI (HS 578T breast) of the same molecule?
**A.** > 100 µM

**Q.** And the GI50 (HL-60(TB) leukemia)?
**A.** > 100 µM

**Q.** And the TGI (HL-60(TB) leukemia)?
**A.** > 100 µM

**Q.** What about the GI50 (SK-MEL-2 melanoma) of the same molecule?
**A.** > 100 µM

**Q.** What about the TGI (SK-MEL-2 melanoma) of the same molecule?
**A.** > 100 µM

**Q.** And the GI50 (SNB-19 CNS)?
**A.** > 100 µM

**Q.** And the TGI (SNB-19 CNS)?
**A.** > 100 µM

**Q.** What about the GI50 (UO-31 renal) of the same molecule?
**A.** > 100 µM

**Q.** And the TGI (UO-31 renal)?
**A.** > 100 µM

**Q.** What about the GI50 (HCT-15 colon) of the same molecule?
**A.** > 100 µM

**Q.** And the TGI (HCT-15 colon)?
**A.** > 100 µM

**Q.** What about the GI50 (OVCAR-8 ovarian) of the same molecule?
**A.** > 100 µM

**Q.** And the TGI (OVCAR-8 ovarian)?
**A.** > 100 µM

**Q.** What about the GI50 (CCRF-CEM leukemia) of the same molecule?
**A.** > 100 µM

**Q.** What about the TGI (CCRF-CEM leukemia) of the same molecule?
**A.** > 100 µM

**Q.** What about the GI50 (SK-MEL-28 melanoma) of the same molecule?
**A.** > 100 µM

**Q.** And the TGI (SK-MEL-28 melanoma)?
**A.** > 100 µM

**Q.** And the GI50 (HCC-2998 colon)?
**A.** > 100 µM

**Q.** What about the TGI (HCC-2998 colon) of the same molecule?
**A.** > 100 µM

**Q.** What about the GI50 (DU-145 prostate) of the same molecule?
**A.** > 100 µM

**Q.** What about the TGI (DU-145 prostate) of the same molecule?
**A.** > 100 µM

**Q.** And the GI50 (OVCAR-5 ovarian)?
**A.** > 100 µM

**Q.** What about the TGI (OVCAR-5 ovarian) of the same molecule?
**A.** > 100 µM

**Q.** And the GI50 (MDA-MB-231 breast)?
**A.** 77 µM

**Q.** And the TGI (MDA-MB-231 breast)?
**A.** > 100 µM

**Q.** And the GI50 (HOP-62 NSCLC)?
**A.** > 100 µM

**Q.** What about the TGI (HOP-62 NSCLC) of the same molecule?
**A.** > 100 µM

**Q.** And the GI50 (COLO 205 colon)?
**A.** > 100 µM

**Q.** What about the TGI (COLO 205 colon) of the same molecule?
**A.** > 100 µM

**Q.** What about the GI50 (SNB-75 CNS) of the same molecule?
**A.** 57.6 µM

**Q.** What about the TGI (SNB-75 CNS) of the same molecule?
**A.** > 100 µM

**Q.** What about the GI50 (NCI-H226 lung) of the same molecule?
**A.** > 100 µM

**Q.** What about the TGI (NCI-H226 lung) of the same molecule?
**A.** > 100 µM

**Q.** And the GI50 (IGROV1 ovarian)?
**A.** > 100 µM

**Q.** What about the TGI (IGROV1 ovarian) of the same molecule?
**A.** > 100 µM

**Q.** What about the GI50 (ACHN renal) of the same molecule?
**A.** > 100 µM

**Q.** What about the TGI (ACHN renal) of the same molecule?
**A.** > 100 µM

**Q.** And the GI50 (K-562 leukemia)?
**A.** > 100 µM

**Q.** What about the TGI (K-562 leukemia) of the same molecule?
**A.** > 100 µM

**Q.** And the GI50 (NCI-H522 lung)?
**A.** > 100 µM

**Q.** What about the TGI (NCI-H522 lung) of the same molecule?
**A.** > 100 µM

**Q.** And the GI50 (NCI/ADR-RES ovarian)?
**A.** > 100 µM

**Q.** What about the TGI (NCI/ADR-RES ovarian) of the same molecule?
**A.** > 100 µM

**Q.** What about the GI50 (RXF 393 renal) of the same molecule?
**A.** > 100 µM

**Q.** And the TGI (RXF 393 renal)?
**A.** > 100 µM

**Q.** What about the GI50 (HCT-116 colon) of the same molecule?
**A.** > 100 µM

**Q.** And the TGI (HCT-116 colon)?
**A.** > 100 µM

**Q.** What about the GI50 (SF-539 CNS) of the same molecule?
**A.** > 100 µM

**Q.** And the TGI (SF-539 CNS)?
**A.** > 100 µM

**Q.** And the GI50 (LOX IMVI melanoma)?
**A.** > 100 µM

**Q.** And the TGI (LOX IMVI melanoma)?
**A.** > 100 µM

**Q.** And the GI50 (SK-MEL-5 melanoma)?
**A.** > 100 µM

**Q.** And the TGI (SK-MEL-5 melanoma)?
**A.** > 100 µM

**Q.** What about the GI50 (PC-3 prostate) of the same molecule?
**A.** > 100 µM

**Q.** What about the TGI (PC-3 prostate) of the same molecule?
**A.** > 100 µM

**Q.** And the GI50 (OVCAR-4 ovarian)?
**A.** 90.2 µM

**Q.** And the TGI (OVCAR-4 ovarian)?
**A.** > 100 µM

**Q.** And the GI50 (BT-549 breast)?
**A.** > 100 µM

**Q.** What about the TGI (BT-549 breast) of the same molecule?
**A.** > 100 µM

**Q.** What about the GI50 (UACC-257 melanoma) of the same molecule?
**A.** > 100 µM

**Q.** And the TGI (UACC-257 melanoma)?
**A.** > 100 µM

**Q.** And the GI50 (MOLT-4 leukemia)?
**A.** > 100 µM

**Q.** And the TGI (MOLT-4 leukemia)?
**A.** > 100 µM

**Q.** And the GI50 (NCI-H23 lung)?
**A.** > 100 µM

**Q.** What about the TGI (NCI-H23 lung) of the same molecule?
**A.** > 100 µM

**Q.** And the GI50 (MALME-3M melanoma)?
**A.** > 100 µM

**Q.** What about the TGI (MALME-3M melanoma) of the same molecule?
**A.** > 100 µM

**Q.** And the GI50 (EKVX NSCLC)?
**A.** > 100 µM

**Q.** And the TGI (EKVX NSCLC)?
**A.** > 100 µM

**Q.** What about the GI50 (SK-OV-3 ovarian) of the same molecule?
**A.** > 100 µM

**Q.** And the TGI (SK-OV-3 ovarian)?
**A.** > 100 µM

**Q.** What about the GI50 (M14 melanoma) of the same molecule?
**A.** > 100 µM

**Q.** And the TGI (M14 melanoma)?
**A.** > 100 µM

**Q.** And the GI50 (RPMI-8226 leukemia)?
**A.** > 100 µM

**Q.** And the TGI (RPMI-8226 leukemia)?
**A.** > 100 µM

**Q.** What about the GI50 (A549 NSCLC) of the same molecule?
**A.** > 100 µM

**Q.** And the TGI (A549 NSCLC)?
**A.** > 100 µM

**Q.** What about the GI50 (HT29 colon) of the same molecule?
**A.** > 100 µM

**Q.** What about the TGI (HT29 colon) of the same molecule?
**A.** > 100 µM

**Q.** And the GI50 (U251 CNS)?
**A.** > 100 µM

**Q.** What about the TGI (U251 CNS) of the same molecule?
**A.** > 100 µM

**Q.** What about the GI50 (T-47D breast) of the same molecule?
**A.** > 100 µM

**Q.** What about the TGI (T-47D breast) of the same molecule?
**A.** > 100 µM
